Data published in ChEMBL document CHEMBL4033705, “Screening for bioactive natural products from a 67-compound library of Glycyrrhiza inflata” (Bioorg Med Chem, 2017).

Legend:
[1] = biological target: T1, Tyrosine-protein phosphatase non-receptor type 1 (Homo sapiens) (UniProt P18031); assay: Inhibition of recombinant human PTP1B using p-nitrophenyl phosphate as substrate at 10 uM after 30 mins relative to control
T1 sequence (whole entry): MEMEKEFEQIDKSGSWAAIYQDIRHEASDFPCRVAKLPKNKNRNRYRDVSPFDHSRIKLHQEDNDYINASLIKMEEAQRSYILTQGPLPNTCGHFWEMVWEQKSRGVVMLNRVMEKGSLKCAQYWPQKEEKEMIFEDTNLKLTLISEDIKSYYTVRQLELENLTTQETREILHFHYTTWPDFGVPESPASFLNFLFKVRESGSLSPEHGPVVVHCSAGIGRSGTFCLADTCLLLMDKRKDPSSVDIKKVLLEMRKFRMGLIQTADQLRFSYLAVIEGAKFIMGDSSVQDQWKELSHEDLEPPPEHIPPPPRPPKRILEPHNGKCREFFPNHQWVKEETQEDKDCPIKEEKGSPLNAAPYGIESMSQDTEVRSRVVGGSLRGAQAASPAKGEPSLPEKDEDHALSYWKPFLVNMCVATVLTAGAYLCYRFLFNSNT

[2] = species: Homo sapiens; assay: Inhibition of LPS-induced NF-kappaB transcription (unknown origin) expressed in human SW480 cells at 10 uM by luciferase reporter gene assay; format: cell-based
[3] = system: RAW264.7; assay: Antiinflammatory activity in mouse RAW264.7 cells assessed as inhibition of LPS-induced NO production at 10 uM after 24 hrs by Griess reagent based assay relative to control; format: functional; conditions: RAW264.7, 24 h
[4] = system: MCF7; assay: Growth inhibition of human MCF7 cells at 10 uM after 24 hrs by MTS assay relative to control; format: functional; conditions: MCF7, 24 h, read-out: GI
[5] = biological target: Mushroom tyrosinase (Agaricus bisporus) (UniProt O42713+Q00024+C7FF04+C7FF05); assay: Inhibition of mushroom tyrosinase at 10 uM using L-tyrosine as substrate incubated for 15 mins followed by substrate addition relative to control
[6] = Inhibition of LPS-induced NF-kappaB transcription (unknown origin) expressed in human SW480 cells by luciferase reporter gene assay; format: cell-based
[7] = system: SW480; assay: Growth inhibition of human SW480 cells at 10 uM after 24 hrs by MTS assay relative to control; format: functional; conditions: SW480, 24 h, read-out: GI
[8] = (§1) Growth inhibition of human LO2 cells at 10 uM after 24 hrs by MTS assay relative to control; format: cell-based, L02; conditions: LO2 cells, read-out: GI
[9] = system: HepG2; assay: Growth inhibition of human HepG2 cells at 10 uM after 24 hrs by MTS assay relative to control; format: functional; conditions: HepG2, 24 h, read-out: GI
[10] = (§2) Growth inhibition of human HEK293T cells at 10 uM after 24 hrs by MTS assay relative to control; format: cell-based, HEK-293T; conditions: HEK293T cells, read-out: GI
[11] = system: RAW264.7; assay: Antiinflammatory activity in mouse RAW264.7 cells assessed as inhibition of LPS-induced NO production after 24 hrs by Griess reagent based assay; format: functional, cell-based; conditions: RAW264.7, 24 h
[12] = system: SW480; assay: Cytotoxicity against human SW480 cells assessed as reduction in cell viability after 24 hrs by MTS assay; format: functional, cell-based; conditions: SW480, 24 h
[13] = biological target: T2, Tyrosine-protein phosphatase non-receptor type 1 (Homo sapiens, UniProt P18031); assay: Inhibition of recombinant human PTP1B using p-nitrophenyl phosphate as substrate after 30 mins
T2 sequence (P18031 whole entry): T1 sequence (whole entry)

[14] = system: HepG2; assay: Cytotoxicity against human HepG2 cells assessed as reduction in cell viability after 24 hrs by MTS assay; format: functional, cell-based; conditions: HepG2, 24 h
[15] = system: MCF7; assay: Cytotoxicity against human MCF7 cells assessed as reduction in cell viability after 24 hrs by MTS assay; format: functional, cell-based; conditions: MCF7, 24 h
[16] = biological target: Mushroom tyrosinase (Agaricus bisporus, UniProt O42713+Q00024+C7FF04+C7FF05); assay: Inhibition of mushroom tyrosinase using L-tyrosine as substrate incubated for 15 mins followed by substrate addition
[17] = system: L02; assay: as §1; format: cell-based; conditions: l02, 24 h, 10 µM
[18] = system: HEK-293T; assay: as §2; format: cell-based; conditions: hek-293t, 24 h, 10 µM

Row | Structure (SMILES) | inhibition [1] | inhibition [2] | inhibition at 10 µM [3] | inhibition of growth at 10 µM [4] | inhibition [5] | IC50 [6] | inhibition of growth at 10 µM [7] | inhibition at 24 h, 10 µM [8] | inhibition of growth at 10 µM [9] | inhibition at 24 h, 10 µM [10] | IC50 [11] | IC50 [12] | IC50 [13] | IC50 [14] | IC50 [15] | IC50 [16] | Activity [17] | Activity [18]
1 | C=CC(C)(C)c1cc(/C=C/C(=O)c2ccc(O)cc2)c(OC)c(O)c1O | 48% | 66% | 50% | 31% | 12% | 6.67 µM | 36% | 5% | 22% | 11% | – | – | – | – | – | – | – | –
2 | COc1c(/C=C/C(=O)c2ccc(O)cc2)ccc(O)c1O | 64% | 4% | 71 to 73% | 13% | 8% | – | 9% | 6% | 4% | 7% | 8.78 µM | – | – | – | – | – | – | –
3 | CC(C)=CCc1cc([C@@H]2CC(=O)c3ccc(O)c(CC=C(C)C)c3O2)ccc1O [GLABROL] | 92% | 21% | 6% | 97% | 8% | – | 98% | 16% | 98% | 36% | – | 5.15 µM | 0.31 µM | 2.83 µM | 7.62 µM | – | – | –
4 | CC1(C)C=Cc2cc(/C=C/C(=O)c3ccc(O)cc3O)ccc2O1 | 33% | 78% | 23% | 14% | 1% | 7.27 µM | 14% | 5% | 0% | 7% | – | – | – | – | – | – | – | –
5 | C=C(C)[C@H](C)c1cc(/C=C/C(=O)c2ccc(O)cc2)c(OC)cc1O [LICOCHALCONE E] | 21% | 72% | 55% | 42% | 8% | 3.83 µM | 44% | 22% | 23% | 34% | 9.09 µM | – | – | – | – | – | – | –
6 | CC1(C)C=Cc2cc(-c3coc4cc(O)cc(O)c4c3=O)cc(O)c2O1 | 58% | 8% | 14% | 15% | 95% | – | 29% | 7% | 5% | 0% | – | – | – | – | – | 0.25 µM | – | –
7 | CC(C)=CCc1c(O)cc(O)c2c(=O)cc(-c3ccc(O)cc3)oc12 | 18% | 3% | 58% | 0% | 2% | – | 19% | – | 21% | – | 3.83 µM | – | – | – | – | – | – | –
8 | CC(C)=CCc1cc([C@@H]2CC(=O)c3c(O)cc(O)c(CC=C(C)C)c3O2)ccc1O [LESPEDEZAFLAVANONE B] | 46% | 34% | 14% | 86% | 5% | – | 81% | 12% | 24% | 6% | – | 12.5 µM | – | – | 13.1 µM | – | Non-Toxic | Non-Toxic
